Patent publication US20080234262A1 (Wyeth, priority 2007, published 2008)

How the values were obtained:
[1] = tested on: prostate line LNCap; test: In vitro cell culture growth assay (MTS), LNCap; assay type: cell-based, human; details: LNCap cells, three days after drug treatment
[2] = tested on: breast line MDA468; test: In vitro cell culture growth assay (MTS), MDA468; assay type: cell-based, human; details: MDA468 cells, three days after drug treatment
Method in brief: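 MDA468 or LNCap cells received inhibitors one day after plating and were grown for three days. Viable cell density read by MTS conversion, absorbance 490 nm, expressed as percent of control growth versus vehicle-treated cells on the same plate.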

[3] = target: PI3K (Homo sapiens, UniProt P42336); test: Fluorescence polarization assay for PI3K; assay type: biochemical; details: PI3Kα; read-out: PI3Kα IC50;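 note: PI3K kinase reaction on PIP2 with ATP, 30-60 min, product sensed by GST-GRP with red probe in fluorescence polarization (mP), controls without enzyme and at zero time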
PI3K, sequence (P42336 whole entry): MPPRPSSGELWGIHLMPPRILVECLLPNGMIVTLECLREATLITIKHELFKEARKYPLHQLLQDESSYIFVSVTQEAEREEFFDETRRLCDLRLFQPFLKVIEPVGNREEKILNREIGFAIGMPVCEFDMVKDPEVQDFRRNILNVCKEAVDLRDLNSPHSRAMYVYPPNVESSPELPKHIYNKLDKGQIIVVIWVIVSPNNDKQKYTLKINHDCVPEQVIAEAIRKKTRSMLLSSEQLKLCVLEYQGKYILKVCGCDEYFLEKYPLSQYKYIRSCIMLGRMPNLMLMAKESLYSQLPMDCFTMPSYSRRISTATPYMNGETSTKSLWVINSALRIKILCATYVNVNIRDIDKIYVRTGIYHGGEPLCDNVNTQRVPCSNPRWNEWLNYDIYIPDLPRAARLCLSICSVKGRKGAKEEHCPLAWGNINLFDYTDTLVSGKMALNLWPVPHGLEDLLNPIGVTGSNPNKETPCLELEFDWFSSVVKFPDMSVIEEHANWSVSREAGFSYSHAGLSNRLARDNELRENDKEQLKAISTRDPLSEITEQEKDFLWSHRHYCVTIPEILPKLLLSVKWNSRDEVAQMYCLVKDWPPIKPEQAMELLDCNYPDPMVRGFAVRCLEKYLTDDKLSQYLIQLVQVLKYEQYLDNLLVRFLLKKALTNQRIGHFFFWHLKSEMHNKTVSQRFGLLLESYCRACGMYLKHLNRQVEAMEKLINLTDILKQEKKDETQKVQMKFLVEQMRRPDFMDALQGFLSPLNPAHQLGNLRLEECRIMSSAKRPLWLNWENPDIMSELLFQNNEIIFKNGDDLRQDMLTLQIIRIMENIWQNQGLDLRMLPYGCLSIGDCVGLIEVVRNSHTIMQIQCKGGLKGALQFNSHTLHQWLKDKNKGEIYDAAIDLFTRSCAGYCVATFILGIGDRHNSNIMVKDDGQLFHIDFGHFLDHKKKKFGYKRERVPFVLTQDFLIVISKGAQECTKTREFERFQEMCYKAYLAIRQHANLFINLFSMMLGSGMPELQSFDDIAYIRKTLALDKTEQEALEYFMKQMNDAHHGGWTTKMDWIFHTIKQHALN
PI3K, sequence (P27986 whole entry partner): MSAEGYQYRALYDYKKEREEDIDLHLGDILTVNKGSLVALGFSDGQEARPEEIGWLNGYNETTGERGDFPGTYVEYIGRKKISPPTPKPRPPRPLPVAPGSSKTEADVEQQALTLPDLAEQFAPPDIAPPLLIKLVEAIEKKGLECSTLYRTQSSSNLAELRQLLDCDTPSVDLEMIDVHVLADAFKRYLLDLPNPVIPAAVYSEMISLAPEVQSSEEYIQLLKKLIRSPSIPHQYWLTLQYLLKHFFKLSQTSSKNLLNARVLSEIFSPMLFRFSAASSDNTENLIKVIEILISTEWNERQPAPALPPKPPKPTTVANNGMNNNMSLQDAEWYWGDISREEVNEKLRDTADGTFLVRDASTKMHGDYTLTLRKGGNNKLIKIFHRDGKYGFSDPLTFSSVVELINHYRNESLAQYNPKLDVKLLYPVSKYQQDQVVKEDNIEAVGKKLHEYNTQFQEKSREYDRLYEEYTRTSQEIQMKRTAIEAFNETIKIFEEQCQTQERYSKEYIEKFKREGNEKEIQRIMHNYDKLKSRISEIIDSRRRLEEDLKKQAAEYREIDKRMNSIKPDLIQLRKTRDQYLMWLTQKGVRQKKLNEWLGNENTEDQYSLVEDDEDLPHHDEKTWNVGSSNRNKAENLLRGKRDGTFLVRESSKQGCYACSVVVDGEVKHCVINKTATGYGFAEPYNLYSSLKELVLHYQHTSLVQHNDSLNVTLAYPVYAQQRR

Compound	IC50 ([1]; Homo sapiens, LNCaP, 72 h)	IC50 [3]	IC50 [1]	IC50 ([2]; Homo sapiens, 72 h)	IC50 [2]
CN(C)CCCn1ncc2c(N3CCOCC3)nc(-c3ccc4[nH]ccc4c3)nc21 [Compound 160]	2.8 µM	6 µM	–	15 µM	–
c1ccc(CN2CCC(n3ncc4c(N5CCOCC5)nc(-c5cnc6ccccc6c5)nc43)CC2)cc1 [Compound 484, 3-[1-(1-benzylpiperidin-4-yl)-4-morpholin-4-yl-1H-pyrazolo[3,4-d]pyrimidin-6-yl]quinoline]	> 60 µM	6 µM	–	22 µM	–
c1ccc(-n2ncc3c(N4CCOCC4)nc(-c4ccc(N5CCOCC5)nc4)nc32)cc1 [Compound 131]	60 µM	1.1 µM	–	60 µM	–
CNC(=O)Nc1cccc(-c2nc(N3CCOCC3)c3cnn(C4CCN(Cc5ccccc5)CC4)c3n2)c1 [Compound 228, N-{3-[1-(1-benzylpiperidin-4-yl)-4-morpholin-4-yl-1H-pyrazolo[3,4-d]pyrimidin-6-yl]phenyl}-N′-methylurea]	5.8 µM	1.92 µM	–	6.8 µM	–
CCNC(=O)Nc1ccc(-c2nc(N3CCOC(C)C3)c3cnn(C4CCN(C(=O)OC)CC4)c3n2)cc1 (stereo not drawn) [Compound 842, methyl 4-[6-{4-[(ethylcarbamoyl)amino]phenyl}-4-(2-methylmorpholin-4-yl)-1H-pyrazolo[3,4-d]pyrimidin-1-yl]piperidine-1-carboxylate]	0.07 µM	0.721 µM	–	1 µM	–
CCNC(=O)Nc1cc(F)c(-c2nc(N3CCOCC3)c3cnn(C4CCN(C(=O)c5cccnc5)CC4)c3n2)cc1F [Example 466, 1-(2,5-difluoro-4-{4-morpholin-4-yl-1-[1-(pyridin-3-ylcarbonyl)piperidin-4-yl]-1H-pyrazolo[3,4-d]pyrimidin-6-yl}phenyl)-3-ethylurea]	1.05 µM	3.11 µM	–	3.3 µM	–
COC(=O)N1CCC(n2ncc3c(N4CCOC(C)C4)nc(-c4ccc(NC(=O)Nc5ccccn5)cc4)nc32)CC1 (stereo not drawn) [Compound 847, methyl 4-[4-(2-methylmorpholin-4-yl)-6-{4-[(pyridin-2-ylcarbamoyl)amino]phenyl}-1H-pyrazolo[3,4-d]pyrimidin-1-yl]piperidine-1-carboxylate]	13 µM	8.32 µM	–	15 µM	–
COC(=O)N1CCC(n2ncc3c(N4CCOCC4)nc(-c4ccc5[nH]ccc5c4)nc32)CC1 [Example 244, methyl 4-[6-(1H-indol-5-yl)-4-morpholin-4-yl-1H-pyrazolo[3,4-d]pyrimidin-1-yl]piperidine-1-carboxylate]	0.75 µM	3.3 µM	–	2.1 µM	–
CCNC(=O)Nc1ccc(-c2nc(N3CCOCC3)c3cnn(C4CCN(C(=O)c5cccnc5)CC4)c3n2)cc1 [Compound 552, 1-ethyl-3-(4-{4-morpholin-4-yl-1-[1-(pyridin-3-ylcarbonyl)piperidin-4-yl]-1H-pyrazolo[3,4-d]pyrimidin-6-yl}phenyl)urea]	0.06 µM	0.434 µM	–	0.18 µM	–
CC(C)(C)OC(=O)N1CCC(n2ncc3c(N4CCOCC4)nc(-c4ccc(NC(=O)Nc5ccccn5)cc4)nc32)CC1 [Compound 769, tert-butyl 4-(4-morpholin-4-yl-6-{4-[(pyridin-2-ylcarbamoyl)amino]phenyl}-1H-pyrazolo[3,4-d]pyrimidin-1-yl)piperidine-1-carboxylate]	3.5 µM	2.19 µM	–	7 µM	–
c1cc2cc(-c3nc(N4CCOCC4)c4cnn(C5CCCCC5)c4n3)ccc2[nH]1 [Example 90, 1-cyclohexyl-6-(1H-indol-5-yl)-4-morpholin-4-yl-1H-pyrazolo[3,4-d]pyrimidine]	1.2 µM	0.918 µM	–	3.2 µM	–

The next compounds have a lower IC50 [3] than those just listed; values first:

IC50 ([1]; Homo sapiens, LNCaP, 72 h)	IC50 [3]	IC50 [1]	Compound	IC50 ([2]; Homo sapiens, 72 h)	IC50 [2]
0.8 µM	0.042 µM	–	CNC(=O)Nc1ccc(-c2nc(N3CCOCC3)c3cnn(C4CCN(C(=O)c5cccnc5)CC4)c3n2)cn1 [Compound 480, 1-methyl-3-(5-{4-morpholin-4-yl-1-[1-(pyridin-3-ylcarbonyl)piperidin-4-yl]-1H-pyrazolo[3,4-d]pyrimidin-6-yl}pyridin-2-yl)urea]	1.2 µM	–
0.027 µM	0.034 µM	–	CNC(=O)Nc1ccc(-c2nc(N3CCOCC3)c3cnn(C4CCN(Cc5ccc(F)cc5)CC4)c3n2)cc1 [Compound 427, 1-(4-{1-[1-(4-fluorobenzyl)piperidin-4-yl]-4-morpholin-4-yl-1H-pyrazolo[3,4-d]pyrimidin-6-yl}phenyl)-3-methylurea]	0.2 µM	–
1.8 µM	0.404 µM	–	CONC(=O)Nc1ccc(-c2nc(N3CCOCC3)c3cnn(-c4ccccc4)c3n2)cc1 [Compound 295, 1-methoxy-3-[4-(4-morpholin-4-yl-1-phenyl-1H-pyrazolo[3,4-d]pyrimidin-6-yl)phenyl]urea]	5 µM	–
–	0.084 µM	0.15 µM	CNC(=O)Nc1ccc(-c2nc(N3CCOCC3)c3cnn(C4CCN(C(=O)c5ccc(Cl)nc5)CC4)c3n2)cc1 [Compound 668, 1-[4-(1-{1-[(6-chloropyridin-3-yl)carbonyl]piperidin-4-yl}-4-morpholin-4-yl-1H-pyrazolo[3,4-d]pyrimidin-6-yl)phenyl]-3-methylurea]	–	0.41 µM
0.18 µM	0.364 µM	–	CC(C)(C)OC(=O)N1CCC(n2ncc3c(N4CCOCC4)nc(-c4ccc(NC(=O)NCCO)cc4)nc32)CC1 [Compound 766, tert-butyl 4-[6-(4-{[(2-hydroxyethyl)carbamoyl]amino}phenyl)-4-morpholin-4-yl-1H-pyrazolo[3,4-d]pyrimidin-1-yl]piperidine-1-carboxylate]	0.41 µM	–
0.5 µM	0.174 µM	–	C/C=C/C(=O)N1CCC(n2ncc3c(N4CCOCC4)nc(-c4ccc(NC(=O)NC)cc4)nc32)CC1 [Compound 756, 1-[4-(1-{1-[(2E)-but-2-enoyl]piperidin-4-yl}-4-morpholin-4-yl-1H-pyrazolo[3,4-d]pyrimidin-6-yl)phenyl]-3-methylurea]	0.5 µM	–
2 µM	0.405 µM	–	CC(=O)Nc1ccc(-c2nc(N3CCOCC3)c3cnn(Cc4ccccc4)c3n2)cc1 [Compound 180]	5.8 µM	–
0.07 µM	0.082 µM	–	CNC(=O)Nc1ccc(-c2nc(N3CCOCC3)c3cnn(C4CCN(Cc5cnccc5OC)CC4)c3n2)cc1 [Example 391, 1-[4-(1-{1-[(4-methoxypyridin-3-yl)methyl]piperidin-4-yl}-4-morpholin-4-yl-1H-pyrazolo[3,4-d]pyrimidin-6-yl)phenyl]-3-methylurea]	0.2 µM	–
0.8 µM	0.402 µM	–	COC(=O)N1CCC(n2ncc3c(N4CCOCC4)nc(-c4ccc(NC(=O)NCCO)cc4)nc32)CC1 [Compound 733, methyl 4-[6-(4-{[(2-hydroxyethyl)carbamoyl]amino}phenyl)-4-morpholin-4-yl-1H-pyrazolo[3,4-d]pyrimidin-1-yl]piperidine-1-carboxylate]	0.58 µM	–
1.2 µM	0.18 µM	–	CCCCNC(=O)Nc1ccc(-c2nc(N3CCOCC3)c3cnn(C4CCN(Cc5ccccc5)CC4)c3n2)cc1 [Compound 185]	3.9 µM	–
0.11 µM	0.25 µM	–	COC(=O)N1CCC(n2ncc3c(N4CCOCC4)nc(-c4ccc(NC(=O)Nc5ccc(F)cc5F)cc4)nc32)CC1 [Compound 861, methyl 4-[6-(4-{[(2,4-difluorophenyl)carbamoyl]amino}phenyl)-4-morpholin-4-yl-1H-pyrazolo[3,4-d]pyrimidin-1-yl]piperidine-1-carboxylate]	0.58 µM	–
0.028 µM	0.074 µM	–	CC(C)OC(=O)N1CCC(n2ncc3c(N4CCOCC4)nc(-c4ccc(NC(=O)Nc5cccnc5)cc4)nc32)CC1 [Compound 838, isopropyl 4-(4-morpholin-4-yl-6-{4-[(pyridin-3-ylcarbamoyl)amino]phenyl}-1H-pyrazolo[3,4-d]pyrimidin-1-yl)piperidine-1-carboxylate]	0.15 µM	–
–	0.072 µM	0.095 µM	CNC(=O)Nc1ccc(-c2nc(N3CCOCC3)c3cnn(C4CCN(Cc5cncc(Br)c5)CC4)c3n2)cc1 [Compound 638, 1-[4-(1-{1-[(5-bromopyridin-3-yl)methyl]piperidin-4-yl}-4-morpholin-4-yl-1H-pyrazolo[3,4-d]pyrimidin-6-yl)phenyl]-3-methylurea]	–	0.56 µM
0.08 µM	0.364 µM	–	O=C(NCCCO)Nc1ccc(-c2nc(N3CCOCC3)c3cnn(C4CCN(Cc5ccccc5)CC4)c3n2)cc1 [Example 269, 1-{4-[1-(1-benzylpiperidin-4-yl)-4-morpholin-4-yl-1H-pyrazolo[3,4-d]pyrimidin-6-yl]phenyl}-3-(3-hydroxypropyl)urea]	0.7 µM	–
0.12 µM	0.038 µM	–	COC(=O)N1CCC(n2ncc3c(N4CCOCC4)nc(-c4ccc(NC(=O)Nc5ccccc5F)cc4)nc32)CC1 [Compound 860, methyl 4-[6-(4-{[(2-fluorophenyl)carbamoyl]amino}phenyl)-4-morpholin-4-yl-1H-pyrazolo[3,4-d]pyrimidin-1-yl]piperidine-1-carboxylate]	0.39 µM	–
0.0274 µM	0.116 µM	–	COC(=O)N1CCC(n2ncc3c(N4CCOCC4)nc(-c4ccc(NC(=O)Nc5ccncc5F)cc4)nc32)CC1 [Compound 864, methyl 4-[6-(4-{[(3-fluoropyridin-4-yl)carbamoyl]amino}phenyl)-4-morpholin-4-yl-1H-pyrazolo[3,4-d]pyrimidin-1-yl]piperidine-1-carboxylate]	0.098 µM	–
0.43 µM	0.186 µM	–	CCCOC(=O)N1CCC(n2ncc3c(N4CCOCC4)nc(-c4ccc(NC(=O)NCCO)cc4)nc32)CC1 [Compound 855, propyl 4-[6-(4-{[(2-hydroxyethyl)carbamoyl]amino}phenyl)-4-morpholin-4-yl-1H-pyrazolo[3,4-d]pyrimidin-1-yl]piperidine-1-carboxylate]	0.33 µM	–
